Test system: KCHSC: kochia (Kochia scoparia)
Assay: Post-emergent Test III, herbicidal activity in wheat and barley
Type: in vivo
Conditions: Bassia scoparia, post-emergence, 504 h; 35 g ai/ha; 21 days after application; read-out: Visual Gorowth Reduction (%) 21 days After Application KCHSC
Experimental: (§1) Post-emergent Test III. Seeds of the desired test plant species were planted in Sun Gro MetroMix® 306 planting mixture, which typically has a pH of 6.0 to 6.8 and an organic matter content of about 30 percent, in plastic pots with a surface area of 103.2 square centimeters (cm^2). When required to ensure good germination and healthy plants, a fungicide treatment and/or other chemical or physical treatment was applied. The plants were grown for 7-36 days (d) in a greenhouse with an approximate 14 hour (h) photoperiod which was maintained at about 18° C. during the day and 17° C. during the night. Nutrients and water were added on a regular basis and supplemental lighting was provided with overhead metal halide 1000-Watt lamps as necessary. The plants were employed for testing when they reached the second or third true leaf stage.
(§2) A weighed amount, determined by the highest rate to be tested, of each test compound was placed in a 25 mL glass vial and was dissolved in 4 mL of a 97:3 v/v mixture of acetone and DMSO to obtain concentrated stock solutions. […] The concentrated stock solutions obtained were diluted with 20 mL of an aqueous mixture containing acetone, water, isopropyl alcohol, DMSO, Agri-Dex crop oil concentrate, and X-77 surfactant in a 48:39:10:1.5:1.5:0.02 v/v ratio to obtain spray solutions containing the highest application rates. Additional application rates were obtained by serial dilution of 12 mL of the high rate solution into a solution containing 2 mL of 97:3 v/v mixture of acetone and DMSO and 10 mL of an aqueous mixture containing acetone, water, isopropyl alcohol, DMSO, Agri-Dex crop oil concentrate, and X-77 surfactant in a 48:39:10:1.5:1.5:0.02 v/v ratio to obtain ½×, ¼×, ⅛× and 1/16× rates of the high rate. Compound requirements are based upon a 12 mL application volume at a rate of 187 liters per hectare (L/ha). Formulated compounds were applied to the plant material with an overhead Mandel track sprayer equipped with 8002E nozzles calibrated to deliver 187 L/ha over an application area of 0.503 square meters at a spray height of 18 inches (43 cm) above the average plant canopy height. Control plants were sprayed in the same manner with the solvent blank.
(§3) The treated plants and control plants were placed in a greenhouse as described above and watered by subirrigation to prevent wash-off of the test compounds. After 21 d, the condition of the test plants as compared with that of the untreated plants was determined visually and scored on a scale of 0 to 100 percent where 0 corresponds to no injury and 100 corresponds to complete kill.
(§4) By applying the well-accepted probit analysis as described by J. Berkson in Journal of the American Statistical Society, 48, 565 (1953) and by D. Finney in “Probit Analysis” Cambridge University Press (1952), herbicidal injury of a specific compound at various rates can be used to calculate GR20, GR50, GR80 and GR90 values, which are defined as growth reduction factors that correspond to the effective dose of herbicide required to provide plant growth reduction (GR) of 20 percent, 50 percent, 80 percent and 90 percent, respectively. Probit analysis was applied to data collected from multiple dose rates of individual compounds utilizing the procedures explained in the following examples. The analysis of those dose rates is captured in the following tables.

Which pest or weed control at 35 g/ha does the source give for `Nc1c(F)c(-c2cc(F)c(I)cc2F)nc(C(=O)O)c1Cl` [Compound 69] here?
The pest or weed control at 35 g/ha was 85 to 94%.

Which pest or weed control at 35 g/ha does the source give for `C=Cc1c(C(=O)O)nc(-c2ccc(C(F)(F)F)c(F)c2)c(F)c1N` [Compound 86] here?
Its pest or weed control at 35 g/ha is 75 to 84%.

Same assay, conditions: Bassia scoparia, post-emergence, 504 h; 70 g ai/ha; 21 days after application; read-out: Visual Gorowth Reduction (%) 21 days After Application KCHSC

`Nc1c(F)c(-c2cc(F)c(I)cc2F)nc(C(=O)O)c1Cl` [Compound 69] was tested. Which pest or weed control at 70 g/ha did it give?
The pest or weed control at 70 g/ha was 85 to 94%.

Which pest or weed control at 70 g/ha does the source give for `C=Cc1c(C(=O)O)nc(-c2ccc(C(F)(F)F)c(F)c2)c(F)c1N` [Compound 86] here?
Its pest or weed control at 70 g/ha is 75 to 84%.

Same assay, conditions: probit analysis; dose for 50 percent growth reduction; 21 days after application

Which “GR50 KCHSC” value does the source give for `Nc1c(F)c(-c2cc(F)c(I)cc2F)nc(C(=O)O)c1Cl` [Compound 69] here?
Its value is 5 g ai/ha.

Which “GR50 KCHSC” value does the source give for `C=Cc1c(C(=O)O)nc(-c2ccc(C(F)(F)F)c(F)c2)c(F)c1N` [Compound 86] here?
The value was 12 g ai/ha.

Same assay, conditions: probit analysis; dose for 80 percent growth reduction; 21 days after application

With `Nc1c(F)c(-c2cc(F)c(I)cc2F)nc(C(=O)O)c1Cl` [Compound 69] as the molecule, how does the “GR80 KCHSC” value read?
The value was 19 g ai/ha.

`C=Cc1c(C(=O)O)nc(-c2ccc(C(F)(F)F)c(F)c2)c(F)c1N` [Compound 86] was tested. Which “GR80 KCHSC” value did it give?
Its value is 55 g ai/ha.

Test system: HORSS: barley, including spring and winter (Hordeum vulgare)
Assay: as above
Type: in vivo
Conditions: Hordeum vulgare, post-emergence, 504 h; 35 g ai/ha; 21 days after application; read-out: Visual Gorowth Reduction (%) 21 days After Application HORSS
Experimental: as §1, §2, §3, §4

With `Nc1c(F)c(-c2cc(F)c(I)cc2F)nc(C(=O)O)c1Cl` [Compound 69] as the molecule, how does the pest or weed control at 35 g/ha read?
The pest or weed control at 35 g/ha was 85 to 94%.

With `C=Cc1c(C(=O)O)nc(-c2ccc(C(F)(F)F)c(F)c2)c(F)c1N` [Compound 86] as the molecule, how does the pest or weed control at 35 g/ha read?
The pest or weed control at 35 g/ha was 30 to 44%.

Same assay, conditions: Hordeum vulgare, post-emergence, 504 h; 70 g ai/ha; 21 days after application; read-out: Visual Gorowth Reduction (%) 21 days After Application HORSS

With `Nc1c(F)c(-c2cc(F)c(I)cc2F)nc(C(=O)O)c1Cl` [Compound 69] as the molecule, how does the pest or weed control at 70 g/ha read?
The pest or weed control at 70 g/ha was 95 to 100%.

How did the pest or weed control at 70 g/ha turn out when `C=Cc1c(C(=O)O)nc(-c2ccc(C(F)(F)F)c(F)c2)c(F)c1N` [Compound 86] was run?
Its pest or weed control at 70 g/ha is 30 to 44%.

Same assay, conditions: probit analysis; dose for 20 percent growth reduction (crop); 21 days after application

`Nc1c(F)c(-c2cc(F)c(I)cc2F)nc(C(=O)O)c1Cl` [Compound 69] was tested. Which “GR20 HORSS” value did it give?
Its value is 1 g ai/ha.

How did the “GR20 HORSS” value turn out when `C=Cc1c(C(=O)O)nc(-c2ccc(C(F)(F)F)c(F)c2)c(F)c1N` [Compound 86] was run?
Its value is 14 g ai/ha.

Test system: TRZSS: wheat, including spring and winter (Triticum aestivum)
Assay: as above
Type: in vivo
Conditions: Triticum aestivum, post-emergence, 504 h; 35 g ai/ha; 21 days after application; read-out: Visual Gorowth Reduction (%) 21 days After Application TRZSS
Experimental: as §1, §2, §3, §4

How did the pest or weed control at 35 g/ha turn out when `Nc1c(F)c(-c2cc(F)c(I)cc2F)nc(C(=O)O)c1Cl` [Compound 69] was run?
Its pest or weed control at 35 g/ha is 85 to 94%.

`C=Cc1c(C(=O)O)nc(-c2ccc(C(F)(F)F)c(F)c2)c(F)c1N` [Compound 86] was tested. Which pest or weed control at 35 g/ha did it give?
Its pest or weed control at 35 g/ha is 60 to 74%.

Same assay, conditions: Triticum aestivum, post-emergence, 504 h; 70 g ai/ha; 21 days after application; read-out: Visual Gorowth Reduction (%) 21 days After Application TRZSS

For `Nc1c(F)c(-c2cc(F)c(I)cc2F)nc(C(=O)O)c1Cl` [Compound 69], which pest or weed control at 70 g/ha is on record?
The pest or weed control at 70 g/ha was 85 to 94%.

`C=Cc1c(C(=O)O)nc(-c2ccc(C(F)(F)F)c(F)c2)c(F)c1N` [Compound 86] was tested. Which pest or weed control at 70 g/ha did it give?
The pest or weed control at 70 g/ha was 60 to 74%.

Same assay, conditions: probit analysis; dose for 20 percent growth reduction (crop); 21 days after application

Which “GR20 TRZSS” value does the source give for `Nc1c(F)c(-c2cc(F)c(I)cc2F)nc(C(=O)O)c1Cl` [Compound 69] here?
The value was 1 g ai/ha.

`C=Cc1c(C(=O)O)nc(-c2ccc(C(F)(F)F)c(F)c2)c(F)c1N` [Compound 86] was tested. Which “GR20 TRZSS” value did it give?
Its value is 1 g ai/ha.

Test system: MATSS: scented mayweed (Matricaria chamomilla), pineappleweed (Matricaria matricarioides)
Assay: as above
Type: in vivo
Conditions: Matricaria chamomilla, post-emergence, 504 h; 35 g ai/ha; 21 days after application; read-out: Visual Gorowth Reduction (%) 21 days After Application MATSS
Experimental: as §1, §2, §3, §4

`Nc1c(F)c(-c2cc(F)c(I)cc2F)nc(C(=O)O)c1Cl` [Compound 69] was tested. Which pest or weed control at 35 g/ha did it give?
The pest or weed control at 35 g/ha was 75 to 84%.

With `C=Cc1c(C(=O)O)nc(-c2ccc(C(F)(F)F)c(F)c2)c(F)c1N` [Compound 86] as the molecule, how does the pest or weed control at 35 g/ha read?
Its pest or weed control at 35 g/ha is 60 to 74%.

Same assay, conditions: Matricaria chamomilla, post-emergence, 504 h; 70 g ai/ha; 21 days after application; read-out: Visual Gorowth Reduction (%) 21 days After Application MATSS

With `Nc1c(F)c(-c2cc(F)c(I)cc2F)nc(C(=O)O)c1Cl` [Compound 69] as the molecule, how does the pest or weed control at 70 g/ha read?
The pest or weed control at 70 g/ha was 85 to 94%.

Which pest or weed control at 70 g/ha does the source give for `C=Cc1c(C(=O)O)nc(-c2ccc(C(F)(F)F)c(F)c2)c(F)c1N` [Compound 86] here?
Its pest or weed control at 70 g/ha is 60 to 74%.

Same assay, conditions: probit analysis; dose for 50 percent growth reduction; 21 days after application

`Nc1c(F)c(-c2cc(F)c(I)cc2F)nc(C(=O)O)c1Cl` [Compound 69] was tested. Which “GR50 MATSS” value did it give?
The value was 5 g ai/ha.

`C=Cc1c(C(=O)O)nc(-c2ccc(C(F)(F)F)c(F)c2)c(F)c1N` [Compound 86] was tested. Which “GR50 MATSS” value did it give?
Its value is 22 g ai/ha.

Same assay, conditions: probit analysis; dose for 80 percent growth reduction; 21 days after application

`Nc1c(F)c(-c2cc(F)c(I)cc2F)nc(C(=O)O)c1Cl` [Compound 69] was tested. Which “GR80 MATSS” value did it give?
The value was 29 g ai/ha.

Which “GR80 MATSS” value does the source give for `C=Cc1c(C(=O)O)nc(-c2ccc(C(F)(F)F)c(F)c2)c(F)c1N` [Compound 86] here?
Its value is 85 g ai/ha.
